From patent US11850273B2, “Chemical reprogramming of human glial cells into neurons for brain and spinal cord repair” (The Penn State Research Foundation, priority 2014, dated 2023)

Tested on: human astrocyte-converted neurons
Assay: Patch clamp whole-cell recordings of human astrocyte-converted neurons

How did the “effect on spontaneous burst activities” value turn out when DNQX was run?
Its value is “abolished”.
